For 16 compounds, TGI results are on record in PubChem BioAssay (NCI).

Holding throughout (experiment): NCI tumour cell line growth inhibition, 48 h
For assay [1], the system named is A549 NSCLC.
Assay [2] has as its system BT-549 breast.
The subject of assay [3] is CAKI-1 renal.
Assay [4] concerns COLO 205 colon.
For assay [5], the system named is DU-145 prostate.
Assay [6] deals with EKVX NSCLC.
Assay [7] concerns HCT-116 colon.
In assay [8] the test system is HOP-92 NSCLC.
Assay [9] deals with HS 578T breast.
Assay [10] relates to K-562 leukemia.
Assay [11] concerns LOX IMVI melanoma.
Assay [12] has as its system MALME-3M melanoma.
The test system of assay [13] is MDA-MB-231 breast.
In assay [14] the test system is MDA-N.
Assay [15] relates to RXF 393 renal.
Assay [16] relates to SF-268 CNS.
The subject of assay [17] is T-47D breast.

The structures appear in SMILES notation.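 Compound exposure: 48 hours, 5 concentrations, 96-well plates. TGI: concentration producing complete growth inhibition.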

As to `CC1CN(c2cc3c(cc2F)c(=O)c(C(=O)O)cn3-c2ccc(F)cn2)CC(C)N1` (configuration not stated), the TGI in assay [1], in assay [2], in [3], in [4], in assay [5] and in [6] was greater than 100 µM in each case. The TGI in assay [7], in [8], in assay [9], in assay [10], in assay [11] and in assay [12] was greater than 100 µM throughout. In addition, the TGI in assay [13], in [14], in assay [15], in [16] and in assay [17] was greater than 100 µM in each case.
In the case of `NC(=O)SCCC(N)C(=O)O` (configuration not stated), the TGI in [1], in [2], in [3], in assay [4], in [5] and in assay [6] was greater than 100 µM in each case. Further, the TGI in [7], in [8], in assay [9], in [10], in assay [11] and in assay [12] was greater than 100 µM in each case. Besides, the TGI in [13], in [14], in [15], in [16] and in [17] was greater than 100 µM each time.
Take `CC1(c2ccc(Cl)s2)CC(c2ccc(Cl)s2)=C(C#N)C(=C(C#N)C#N)N1` (configuration not stated): the TGI is 48.8 µM in assay [1]; 45.7 µM in [2]; 34.8 µM in [3]; 61.1 µM in assay [4]; 30.6 µM in assay [5]; 32.6 µM in [6]. The TGI in assay [7] was 34.2 µM; in assay [8], 38.8 µM; in assay [9] it was 61.6 µM; in [10], greater than 100 µM; in assay [11], 44.3 µM; in [12], 43.1 µM. The TGI in assay [13] came out at 47.1 µM; in assay [14] it was 49.5 µM; in [15] it was 33.7 µM; in assay [16] it was 48.9 µM; in [17] it was 46.7 µM.
As to `Clc1ccc(OCc2nnc3sc(-c4ccc(-c5ccc(Cl)cc5Cl)o4)nn23)cc1`, the TGI in [1], in assay [2], in assay [3], in assay [4], in assay [5] and in assay [6] was greater than 100 µM each time. The TGI in [7], in [8], in assay [9], in assay [10], in [11] and in assay [12] was greater than 100 µM in each case. The TGI is greater than 100 µM in assay [13]; greater than 100 µM in assay [14]; 54 µM in [15]; greater than 100 µM in assay [16]; greater than 100 µM in assay [17].
In the case of `CCS(=O)(=O)CCn1c(=O)c2c(ncn2C)n(C)c1=O`, the TGI in assay [1], in assay [2], in assay [3], in assay [4], in assay [5] and in assay [6] was greater than 100 µM in each case. Also, the TGI in assay [7], in assay [8], in assay [9], in [10], in assay [11] and in assay [12] was greater than 100 µM throughout. Besides, the TGI in [13], in assay [14], in assay [15], in assay [16] and in assay [17] was greater than 100 µM each time.
Take `COc1cccc(Nc2nc(N)nc(N)c2N)c1`: the TGI in [1] is greater than 100 µM; in assay [2] it was greater than 100 µM; in [3], 58.3 µM; in assay [4] it was greater than 100 µM; in assay [5] it was greater than 100 µM; in assay [6], greater than 100 µM. Besides, the TGI in assay [7] is 53.8 µM; in assay [8] it was greater than 100 µM; in assay [9], greater than 100 µM; in assay [10], greater than 100 µM; in assay [11], 40.2 µM; in assay [12], greater than 100 µM. The TGI was 58.5 µM in assay [13]; 36.8 µM in [14]; greater than 100 µM in assay [15]; greater than 100 µM in [16]; greater than 100 µM in [17].
With `ON[C@H]1C[C@@H](n2cnc3c(NC4CC4)ncnc32)[C@H](O)[C@@H]1O`, the TGI in assay [1], in [2], in [3], in [4], in assay [5] and in assay [6] was greater than 100 µM in each case. Moreover, the TGI in assay [7], in assay [8], in [9], in assay [10], in assay [11] and in [12] was greater than 100 µM in each case. In addition, the TGI in assay [13], in assay [14], in assay [15], in assay [16] and in [17] was greater than 100 µM in each case.
Take `O=C(N/N=C/c1ccc([N+](=O)[O-])cc1)Nc1ccc(Br)cc1`: the TGI in assay [1], in assay [2], in assay [3], in [4], in assay [5] and in assay [6] was greater than 100 µM in each case. In addition, the TGI in assay [7], in assay [8], in assay [9], in assay [10], in [11] and in assay [12] was greater than 100 µM throughout. Besides, the TGI in assay [13], in assay [14], in [15], in assay [16] and in assay [17] was greater than 100 µM in each case.
As to `CCCCCCCCCCCCCCCCOP(=O)(O)OCC(NC(C)=O)C(=O)O` (configuration not stated), the TGI was greater than 100 µM in assay [1]; 34 µM in assay [2]; greater than 100 µM in [3]; greater than 100 µM in [4]; greater than 100 µM in [5]; greater than 100 µM in assay [6]. For the same compound, the TGI in assay [7], in assay [8], in [9], in assay [10], in [11] and in assay [12] was greater than 100 µM each time. The TGI in assay [13] is 93.2 µM; in assay [14], greater than 100 µM; in assay [15], 48.3 µM; in assay [16], 95.9 µM; in assay [17] it was greater than 100 µM.
Turning to `COC(=O)C1=C(C)NC(C)=C(C(=O)OC)C1c1ccc(N=O)cc1`, the TGI in assay [1] was greater than 60.3 µM; in assay [2], 23 µM; in assay [3], 27.9 µM; in assay [4], 24.5 µM; in assay [5], 19.2 µM; in assay [6], 34.1 µM. Moreover, the TGI in [7] is 36.8 µM; in assay [8] it was 8.95 µM; in assay [9], 40.8 µM; in assay [10] it was greater than 100 µM; in assay [11], 11.6 µM; in assay [12] it was 24.4 µM. Further, the TGI in assay [13] is 25.2 µM; in [14], 16.6 µM; in [15] it was 23.5 µM; in assay [16], 43.9 µM; in [17], 44.7 µM.
Consider `O=c1[nH]c(=O)n(C2CC(O)C(CO)O2)c2nc3ccc4cc5ccccc5cc4c3nc12` (configuration not stated), for which the TGI in [1], in assay [2], in [3], in assay [4], in assay [5] and in assay [6] was greater than 100 µM each time. For the same compound, the TGI in assay [7], in assay [8], in assay [9], in [10], in [11] and in assay [12] was greater than 100 µM each time. In addition, the TGI in assay [13], in assay [14], in [15], in assay [16] and in assay [17] was greater than 100 µM in each case.
On to `COC(=O)C(COC(=O)/C=C/c1ccc(OC(C)=O)c(OC(C)=O)c1)NC(=O)/C=C/c1ccc(OC(C)=O)c(OC(C)=O)c1` (configuration not stated), for which the TGI in assay [1] is greater than 100 µM; in assay [2] it was greater than 100 µM; in assay [3], 59.4 µM; in assay [4], 43.4 µM; in assay [5], 45.2 µM; in assay [6], greater than 100 µM. In addition, the TGI in assay [7] is 42.6 µM; in assay [8] it was greater than 100 µM; in assay [9], greater than 100 µM; in assay [10] it was greater than 100 µM; in [11] it was 53.8 µM; in [12], 32 µM. Also, the TGI in assay [13] is 40.1 µM; in assay [14], 71.7 µM; in assay [15] it was greater than 100 µM; in assay [17] it was 38.8 µM.
For the compound `CCN(CC)c1ccc2nc3ccc(N=Nc4c(O)ccc5ccccc45)cc3[n+](-c3ccccc3)c2c1`, the TGI in [1], in [2], in assay [3], in assay [4], in assay [5] and in assay [6] was greater than 100 µM each time. The TGI in assay [7], in assay [8], in assay [9], in assay [10], in [12] and in assay [13] was greater than 100 µM in each case. Moreover, the TGI in [14], in assay [15], in assay [16] and in [17] was greater than 100 µM each time.
Regarding `COc1ccc(C2=C(N)c3ncccc3C2=O)cc1`, the TGI in [2], in assay [3], in assay [4], in assay [5], in [6] and in assay [7] was greater than 100 µM each time. Moreover, the TGI in assay [8] is greater than 10 µM; in assay [9], greater than 100 µM; in [10], greater than 100 µM; in assay [11] it was greater than 100 µM; in assay [12], greater than 100 µM; in [13], greater than 100 µM. The TGI in assay [14], in [15], in assay [16] and in assay [17] was greater than 100 µM in each case.
For `CCN(CC)C1C(=O)NC1C#Cc1ccccc1` (configuration not stated), the TGI in assay [2], in [3], in assay [4], in assay [5], in assay [6] and in assay [7] was greater than 100 µM in each case. Also, the TGI in [8] was 92.1 µM; in assay [9], greater than 100 µM; in [10] it was greater than 100 µM; in assay [11] it was greater than 100 µM; in assay [12], greater than 100 µM; in assay [13] it was greater than 100 µM. For the same compound, the TGI in assay [14], in [15], in assay [16] and in assay [17] was greater than 100 µM each time.
Turning to `COc1cc2c(cc1O)C1(Cc3ccc4c(c3C1=O)OCO4)N(C)CC2` (configuration not stated), the TGI in assay [1], in assay [2], in assay [3], in [4], in assay [5] and in assay [6] was greater than 100 µM in each case. Moreover, the TGI in [7], in assay [8], in assay [9], in [10], in assay [12] and in [13] was greater than 100 µM in each case. Further, the TGI in assay [14], in [15], in [16] and in assay [17] was greater than 100 µM in each case.
